Series [1] has as its target T1, His-tagged recombinant human IKK-β (Homo sapiens, UniProt O14920).
T1 construct: His; purchased Calbiochem
T1 sequence (O14920 1-756): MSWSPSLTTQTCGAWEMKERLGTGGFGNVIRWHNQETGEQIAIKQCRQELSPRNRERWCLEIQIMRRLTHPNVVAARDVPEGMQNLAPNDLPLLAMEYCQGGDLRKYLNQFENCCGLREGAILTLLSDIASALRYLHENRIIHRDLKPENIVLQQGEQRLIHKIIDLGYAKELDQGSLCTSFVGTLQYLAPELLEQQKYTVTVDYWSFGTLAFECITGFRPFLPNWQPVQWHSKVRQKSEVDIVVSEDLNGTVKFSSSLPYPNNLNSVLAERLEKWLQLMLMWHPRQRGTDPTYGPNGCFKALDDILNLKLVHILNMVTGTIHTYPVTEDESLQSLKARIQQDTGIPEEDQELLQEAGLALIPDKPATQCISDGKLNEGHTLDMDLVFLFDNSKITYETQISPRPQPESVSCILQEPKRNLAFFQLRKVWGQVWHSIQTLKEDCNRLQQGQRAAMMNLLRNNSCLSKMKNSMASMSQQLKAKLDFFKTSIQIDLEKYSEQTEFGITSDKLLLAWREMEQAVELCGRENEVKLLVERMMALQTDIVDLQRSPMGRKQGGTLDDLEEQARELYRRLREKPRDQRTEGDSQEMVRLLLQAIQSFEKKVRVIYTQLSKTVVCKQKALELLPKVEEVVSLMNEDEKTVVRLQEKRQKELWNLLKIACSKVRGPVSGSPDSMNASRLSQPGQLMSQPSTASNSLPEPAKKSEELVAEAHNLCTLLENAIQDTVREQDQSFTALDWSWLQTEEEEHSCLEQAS
As to the kind of experiment: IKK activity assay (K-LISA IKK-β-Inhibitor Screening Kit). Format: biochemical. Particulars: DMY at 50 μM and 100 μM; FIG. 4A. On the procedure: The direct inhibitory effect of DMY on IKK activity was examined by using K-LISA™ IKK-β-Inhibitor Screening Kit (Calbiochem). Both the glutathione-S-transferase (GST)-IκB-α substrate and His-tagged recombinant human IKK-β were incubated with or without DMY in the wells of a glutathione-coated 96-well plate. The reaction was terminated with the addition of kinase stop solution after being incubated at 30° C. for 30 minutes. Then, anti-Phospho IκB-α (Ser32/Ser36) antibody was used to determine the phosphorylated GST-IκB-α substrate, and the horse radish peroxidase (HRP)-conjugated color was developed by 3,3′,5,5′-tetramethylbenzidine (TMB) substrate. ELISA stop solution was used to stop the color development and the absorbance was measured at 450 nm the wavelength at which was directly related to the level of IKK activity.

For another series, the target named is T2, human recombinant IKK-β (Homo sapiens, UniProt O14920).
T2 sequence (O14920 1-756): T1 sequence (O14920 1-756)
As to the kind of experiment: IKK-β competition assay (dot blot with biotin-DMY). The note with it: 100 μM biotin-DMY, 0, 1 and 5 folds of parental compound; FIG. 5A. Format: binding. On the procedure:
5 ng of human recombinant IKK-β was incubated with 100 μM of the biotin-DMY in the presence of 0, 1, and 5 folds of concentration of its parental compound. The mixture was dropped on the nitrocellulose membranes, and then detected with streptavidin horseradish peroxidase. The binding signal was then detected by using ECL.

Series [2] has as its system NF-κB-Luciferase reporter in Jurkat T cells. In words: NF-κB reporter assay (luciferase). In kind it is cell-based. Particulars: 20 ng/ml PMA plus 1 μM ionomycin, 6 hours; FIG. 6B. As to the method:
The Jurkat T cells are transiently transfected with NF-κB-Luciferase reporter plasmid with lipofectamine LTX (Invitrogen). The transfected cells were treated with 20 ng/ml PMA plus 1 μM ionomycin in the presence or absence of biotin-DMY for 6 hours. The cells were then lysed in Passive Lysis Buffer (Promega) and the transcriptional activity was determined by measuring the activity of firefly luciferase in a microplate luminometer (Perkin Elmer) using Luciferase Reporter Assay (Promega).

For a further series, the system named is ICR mice. The note with it: mouse, in vivo. As to the method: ICR (Imprinting Control Region) mice (both male and female) were purchased from the Laboratory Animal Services Center, the Chinese University of Hong Kong, Hong Kong. At the beginning of the study, one mouse was given orally with DMY at a dose of 2,000 mg/kg of mouse after fasting for 12 hours. The mouse had free access to water and after 2 hours, it was supplied with chow diet. Signs of toxicosis, onset of signs, and time to death of the mouse were monitored and recorded. Results of the initial exposure were used to select the subsequent dose of DMY, using the up-and-down method to estimate the lethal dose. […] If all the mice stayed alive, a higher dose of DMY was given to another three mice. All the mice were monitored continuously for two hours, every half hour for the next 5 hours, and at least every 10 hours until the 72nd hour of the study. Mice that died were immediately undergone autopsy. Mice remaining alive for 14 days upon study were sacrificed with an overdose pentobarbital.

Series [3] relates to ear edema induced by dinitrofluorobenzene in male ICR mice. As to the kind of experiment: Delay-type hypersensitivity test (DNFB-induced ear edema). In kind it is in vivo. As to the method:
Male mice were sensitized through topical application of 20 μl of 0.5% (v/v) dinitrofluorobenzene (DNFB) in acetone onto the shaved abdomen on days 1 and 2. Challenge was then preformed in day 6 by applying DNFB (20 μl, 0.5%, v/v) on the left inner and outer ear surfaces of mice. DMY (at doses of 0.5, 1, 2 mg/ear) and DEX (0.025 mg/ear, Sigma-Aldrich) dissolved in acetone was topically applied (20 μl) to the ears at 2nd, 24th, 48th, and 72nd hour after the challenge. The mice were sacrificed by cervical dislocation, and then the same area of the ears was punched from each animal. Spleens and thymuses were isolated and weighted. The ear edema was calculated according to the differences between the weight of the right and left ears. The control group was treated only with DNFB.

Where [4] appears, read: DTHT mice, topical treatment, FIGS. 9B and C.

Molecules are shown by their SMILES.

`O=C1c2c(O)cc(O)cc2O[C@H](c2cc(O)c(O)c(O)c2)[C@H]1O` [DMY, dihydromyricetin]: the “activity of IKK-β” value in series [1] was “significantly inhibited the activity of IKK-β”. On human recombinant IKK-β, the “competition with biotin-DMY for binding to IKK-β” value is “can compete with biotin-DMY”. In addition, the NF-κB transcriptional activity entry in series [2] is given as “significantly suppressed”. Further, the “acute oral LD50” value with ICR mice was “greater than 5,000 mg/kg body weight”. Further, the body weight entry in series [3] (DTHT mice, topical treatment) was “only a small decrease”. Also, in series [3] (setting [4]), the spleen weight entry was “increase” and the thymus weight entry was “increase”. Moreover, the ear edema entry in series [3] (topical, 0.5, 1, 2 mg/ear at 2nd, 24th, 48th, 72nd hour after challenge, FIG. 9A) is “significantly and dose-dependently inhibit the ear edema”.

The record behind these values is patent US20120053235A1, “Dihydromyricetin as an IKK-beta inhibitor used for treatment of arthritis, cancer and autoimmune conditions, and other diseases or disorders” (HONG KONG BAPTIST UNIVERSITY, priority 2010, published 2012).
